Laboratory results: the supplement of paper PMC10307832

How the values were obtained:
Assay in all cases: relative viability (nuclei count vs DMSO), 5 days (fraction); higher = more cells survive
UMC-11 = tested on: UMC-11
Procedure, shortened: (§1)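 Dosing by pin tool came one day after lung cancer cell lines were seeded in 1536-well plates, using either one drug or a fixed anchor-drug dose plus five library-drug doses (not always all listed) in √10 steps. After 5 days, nuclei were counted on 4× images. Relative viability is treated-well nuclei count divided by vehicle-well nuclei count, and values are medians of duplicate plates.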

CAL-12T = tested on: CAL-12T
Procedure, shortened: as §1

LC-2-ad = tested on: LC-2-ad
Procedure, shortened: as §1

NCI-H2228 = tested on: NCI-H2228
Procedure, shortened: as §1

RERF-LC-KJ = tested on: RERF-LC-KJ
Procedure, shortened: as §1

NCI-H1755 = tested on: NCI-H1755
Procedure, shortened: as §1

NCI-H2405 = tested on: NCI-H2405
Procedure, shortened: as §1

NCI-H1944 = tested on: NCI-H1944
Procedure, shortened: as §1

LU99A = tested on: LU99A
Procedure, shortened: as §1

NCI-H2170 = tested on: NCI-H2170
Procedure, shortened: as §1

NCI-H1395 = tested on: NCI-H1395
Procedure, shortened: as §1

ChaGo-K-1 = tested on: ChaGo-K-1
Procedure, shortened: as §1

NCI-H460 = tested on: NCI-H460
Procedure, shortened: as §1

HCC-366 = tested on: HCC-366
Procedure, shortened: as §1

LOU-NH91 = tested on: LOU-NH91
Procedure, shortened: as §1

NCI-H3122 = tested on: NCI-H3122
Procedure, shortened: as §1

NCI-H2087 = tested on: NCI-H2087
Procedure, shortened: as §1

NCI-H1651 = tested on: NCI-H1651
Procedure, shortened: as §1

ABC-1 = tested on: ABC-1
Procedure, shortened: as §1

PC-3 [JPC-3] = tested on: PC-3 [JPC-3]
Procedure, shortened: as §1

HCC-78 = tested on: HCC-78
Procedure, shortened: as §1

NCI-H1793 = tested on: NCI-H1793
Procedure, shortened: as §1

COc1cc2nccc(Oc3ccc(NC(=O)Nc4cc(C)on4)c(Cl)c3)c2cc1OC [Tivozanib] + COc1cccc2cc(-c3nc([C@H]4CC[C@H](C(=O)O)CC4)n4ncnc(N)c34)[nH]c12 [OSI-027] (partner 0.5 µM)
relative viability (UMC-11; first compound 0.005 µM): 0.491
relative viability (UMC-11; first compound 0.01581 µM): 0.451
relative viability (UMC-11; first compound 0.05 µM): 0.536
relative viability (UMC-11; first compound 0.5 µM): 0.426
relative viability (CAL-12T; first compound 0.005 µM): 0.583
relative viability (CAL-12T; first compound 0.01581 µM): 0.737
relative viability (CAL-12T; first compound 0.05 µM): 0.762
relative viability (CAL-12T; first compound 0.1581 µM): 0.364
relative viability (CAL-12T; first compound 0.5 µM): 0.418
relative viability (LC-2-ad; first compound 0.005 µM): 0.784
relative viability (LC-2-ad; first compound 0.01581 µM): 0.834
relative viability (LC-2-ad; first compound 0.05 µM): 0.812
relative viability (LC-2-ad; first compound 0.1581 µM): 0.71
relative viability (LC-2-ad; first compound 0.5 µM): 0.512
relative viability (NCI-H2228; first compound 0.005 µM): 0.492
relative viability (NCI-H2228; first compound 0.01581 µM): 0.54
relative viability (NCI-H2228; first compound 0.05 µM): 0.615
relative viability (NCI-H2228; first compound 0.1581 µM): 0.488
relative viability (NCI-H2228; first compound 0.5 µM): 0.485
relative viability (RERF-LC-KJ; first compound 0.005 µM): 0.458
relative viability (RERF-LC-KJ; first compound 0.01581 µM): 0.62
relative viability (RERF-LC-KJ; first compound 0.05 µM): 0.657
relative viability (RERF-LC-KJ; first compound 0.1581 µM): 0.415
relative viability (RERF-LC-KJ; first compound 0.5 µM): 0.59
relative viability (NCI-H1755; first compound 0.005 µM): 0.685
relative viability (NCI-H1755; first compound 0.01581 µM): 0.77
relative viability (NCI-H1755; first compound 0.05 µM): 0.733
relative viability (NCI-H1755; first compound 0.1581 µM): 0.646
relative viability (NCI-H1755; first compound 0.5 µM): 0.612
relative viability (NCI-H2405; first compound 0.005 µM): 0.631
relative viability (NCI-H2405; first compound 0.01581 µM): 0.716
relative viability (NCI-H2405; first compound 0.05 µM): 0.684
relative viability (NCI-H2405; first compound 0.1581 µM): 0.526
relative viability (NCI-H2405; first compound 0.5 µM): 0.577
relative viability (NCI-H1944; first compound 0.005 µM): 0.396
relative viability (NCI-H1944; first compound 0.01581 µM): 0.431
relative viability (NCI-H1944; first compound 0.05 µM): 0.449
relative viability (NCI-H1944; first compound 0.1581 µM): 0.344
relative viability (NCI-H1944; first compound 0.5 µM): 0.447
relative viability (LU99A; first compound 0.005 µM): 0.292
relative viability (LU99A; first compound 0.01581 µM): 0.302
relative viability (LU99A; first compound 0.05 µM): 0.301
relative viability (LU99A; first compound 0.1581 µM): 0.268
relative viability (LU99A; first compound 0.5 µM): 0.238
relative viability (NCI-H2170; first compound 0.005 µM): 0.633
relative viability (NCI-H2170; first compound 0.01581 µM): 0.78
relative viability (NCI-H2170; first compound 0.05 µM): 0.723
relative viability (NCI-H2170; first compound 0.1581 µM): 0.464
relative viability (NCI-H2170; first compound 0.5 µM): 0.661
relative viability (NCI-H1395; first compound 0.005 µM): 0.52
relative viability (NCI-H1395; first compound 0.01581 µM): 0.635
relative viability (NCI-H1395; first compound 0.05 µM): 0.648
relative viability (NCI-H1395; first compound 0.1581 µM): 0.546
relative viability (NCI-H1395; first compound 0.5 µM): 0.528
relative viability (ChaGo-K-1; first compound 0.005 µM): 0.601
relative viability (ChaGo-K-1; first compound 0.01581 µM): 0.555
relative viability (ChaGo-K-1; first compound 0.05 µM): 0.605
relative viability (ChaGo-K-1; first compound 0.1581 µM): 0.552
relative viability (ChaGo-K-1; first compound 0.5 µM): 0.432
relative viability (NCI-H460; first compound 0.005 µM): 0.626
relative viability (NCI-H460; first compound 0.01581 µM): 0.692
relative viability (NCI-H460; first compound 0.05 µM): 0.727
relative viability (NCI-H460; first compound 0.1581 µM): 0.622
relative viability (NCI-H460; first compound 0.5 µM): 0.578
relative viability (HCC-366; first compound 0.005 µM): 0.839
relative viability (HCC-366; first compound 0.01581 µM): 0.849
relative viability (HCC-366; first compound 0.05 µM): 1.02
relative viability (HCC-366; first compound 0.1581 µM): 0.707
relative viability (HCC-366; first compound 0.5 µM): 0.57
relative viability (LOU-NH91; first compound 0.005 µM): 0.695
relative viability (LOU-NH91; first compound 0.01581 µM): 0.807
relative viability (LOU-NH91; first compound 0.05 µM): 0.762
relative viability (LOU-NH91; first compound 0.1581 µM): 0.61
relative viability (LOU-NH91; first compound 0.5 µM): 0.729
relative viability (NCI-H3122; first compound 0.005 µM): 0.971
relative viability (NCI-H3122; first compound 0.01581 µM): 0.98
relative viability (NCI-H3122; first compound 0.05 µM): 1.05
relative viability (NCI-H3122; first compound 0.1581 µM): 0.859
relative viability (NCI-H3122; first compound 0.5 µM): 0.925
relative viability (NCI-H2087; first compound 0.005 µM): 0.461
relative viability (NCI-H2087; first compound 0.01581 µM): 0.6
relative viability (NCI-H2087; first compound 0.05 µM): 0.558
relative viability (NCI-H2087; first compound 0.1581 µM): 0.376
relative viability (NCI-H2087; first compound 0.5 µM): 0.44
relative viability (NCI-H1651; first compound 0.005 µM): 0.759
relative viability (NCI-H1651; first compound 0.01581 µM): 0.721
relative viability (NCI-H1651; first compound 0.05 µM): 0.737
relative viability (NCI-H1651; first compound 0.1581 µM): 0.497
relative viability (NCI-H1651; first compound 0.5 µM): 0.67
relative viability (ABC-1; first compound 0.005 µM): 0.456
relative viability (ABC-1; first compound 0.01581 µM): 0.509
relative viability (ABC-1; first compound 0.05 µM): 0.462
relative viability (ABC-1; first compound 0.1581 µM): 0.359
relative viability (ABC-1; first compound 0.5 µM): 0.395
relative viability (PC-3 [JPC-3]; first compound 0.005 µM): 0.665
relative viability (PC-3 [JPC-3]; first compound 0.01581 µM): 0.722
relative viability (PC-3 [JPC-3]; first compound 0.05 µM): 0.774
relative viability (PC-3 [JPC-3]; first compound 0.1581 µM): 0.591
relative viability (PC-3 [JPC-3]; first compound 0.5 µM): 0.733
relative viability (HCC-78; first compound 0.005 µM): 0.326
relative viability (HCC-78; first compound 0.01581 µM): 0.369
relative viability (HCC-78; first compound 0.05 µM): 0.386
relative viability (HCC-78; first compound 0.1581 µM): 0.31
relative viability (HCC-78; first compound 0.5 µM): 0.316
relative viability (NCI-H1793; first compound 0.005 µM): 0.225
relative viability (NCI-H1793; first compound 0.01581 µM): 0.219
relative viability (NCI-H1793; first compound 0.05 µM): 0.344
relative viability (NCI-H1793; first compound 0.1581 µM): 0.249
relative viability (NCI-H1793; first compound 0.5 µM): 0.235
